The nature of series [1]: Oxygen radical scavenging capacity (ORAC) assay. The settings on record: for ORAC value: Trolox equivalents per 1 g of compound, mean ± SD, n = 3; for decrease of ORAC antioxidant activity relative to 4-hydroxybenzoic acid: additional methoxy group(s) in ortho-positions of the p-OH. The protocol: The antioxidant activity of compounds was measured using the ORAC assay according to a previous method. Briefly, 150 μL 8.16 × 10^−5 mM fluorescein working solution was added to the inner wells of a 96-well microplate. Then the plate was incubated at 37 °C for 10 min, after which another 25 μL diluted antioxidants were added using Trolox as standard and 75 mM buffer solution as blank. The plate was shaken every 3 min during the incubation. […] All samples were analyzed in triplicate at three different dilutions. ORAC values were expressed as mean micromoles of Trolox equivalents (TE) per 1 g of the compound.

Series [2] concerns the target α-glucosidase (EC3.2.1.20). Nature of the series: α-Glucosidase inhibition assay. The format is biochemical. As to conditions: mean ± SD; samples in 30% (v/v) ethanol-PBS. The protocol: The inhibition assay with the α-glucosidase was carried out as a previously described protocol. […] The incubated system contained 50 μL of samples and 100 μL of the α-glucosidase solution was added to a 96-well plate at 37 °C for 10 min. Then, 50 μL of the substrate pNP-α-G was added to start the reaction at 37 °C. After 10 min, 100 μL of 1 M Na2CO3 solution was added to inactivate α-glucosidase and halt the generation of substrates, and the absorbance was read at 405 nm with the micro-plate reader (SpectraMax 190, Molecular Devices Co., Sunnyvale, CA, USA). The percentage of inhibition and the values of IC50 of samples were calculated by the same equation as α-amylase inhibition assay.

In the next series the test system is α-amylase (EC3.2.1.1). Description: α-Amylase inhibition assay. The format is biochemical. The settings on record: for IC50: mean ± SD, samples in 30% (v/v) ethanol-PBS. The protocol:
The inhibition assay with the α-amylase was performed as a previously reported protocol with a slight modification. […] Then, 1 U mL^−1 α-amylase (EC3.2.1.1), soluble starch solution (1%, w/v) and 3,5-dinitrosalicylic acid (DNS) were all dissolved in PBS (50 mM, pH 6.9). The mixed system contained a 500 μL sample or blank solution and 500 μL α-amylase incubated at 37 °C for 10 min, followed by the addition of 500 μL of preheated starch solution into the mixed incubated system to initiate the enzymatic hydrolysis reaction (37 °C, 10 min). Finally, 1 mL of DNS was added to halt the reaction, and the mixture was then allowed to sit in boiling water for 5 min. The absorbance was measured at 540 nm using a microplate reader (SpectraMax 190, Molecular Devices Co., Sunnyvale, CA, USA) at room temperature. The inhibition rate of the samples was calculated using the following equation: Inhibition rate (%)=[1−(Asample−Asample blank)/(Acontrol−Acontrol blank)]×100 where Asample, Asample blank, Acontrol, Acontrol blank represent the absorbance of the presence and absence of enzymes in sample solutions, and the absorbance of the presence and absence of enzymes in buffer solutions. The half-maximal inhibitory concentration (IC50) of each compound was obtained by regression analysis.

Series [3] can be described thus: Dissolution in 30% (v/v) ethanol-water solvent system. It counts as physicochemical. The settings on record: high-concentration.
The subject of another series is HepG2 cells. Nature of the series: Cellular antioxidant activity (CAA) assay. The format is cell-based. The settings on record: for CAA value: converted from EC50, quercetin equivalents; for EC50: Homo sapiens, HepG2, HepG2 cells. The protocol:
HepG2 cells (ATCC Co., Manassas, VA, USA) were incubated in DMEM with 1% penicillin-streptomycin and 10% FBS and maintained at 37 °C with 5% CO2. The modified methylene blue assay was used to determine cytotoxicity.
The CAA assay was performed, according to Wolfe et al., with slight modification. In brief, 6 × 10^4 HepG2 cells were placed in each well of a black-walled 96-microwell plate. 200 μL of PBS was added to the edge of the plate to prevent the edge effect. After adherence, cells were treated with a range of concentrations of benzoic acid derivatives and a standard (quercetin) containing 50 μM DCFH-DA for 1 h under the same culture condition. After removing the supernatant medium, the cells were washed with or without PBS. Then promptly added 600 μM ABAP into each well except blank groups before reading at 485 nm excitation and 538 nm emission using a multifunctional microplate detector (Molecular Devices, Sunnyvale, CA, USA). The fluorescence values were recorded every 5 min for 1 h. The CAA values were obtained by converting the EC50 values and presented as μmol quercetin equivalents (QE)/100 μmol.

Where “and” joins values, the source holds several entries; their conditions need not be identical. Identical values can stand only once.

Turning to `COc1cc(OC2OC(CO)C(O)C(O)C2O)cc(O)c1OC` [Compound 10, 3-hydroxy-4,5-dimethoxyphenyl-β-D-glucopyranoside], the ORAC value in series [1] was 4177.5 ± 324.2 μmol TE/g.
In the case of `O=C(O)c1ccc(O)cc1` [Compound 7, 4-hydroxybenzoic acid], 34.1 ± 1.51 mM corresponded to half-maximal inhibition in series [2] (IC50). Further, in series [1], the ORAC value was 14874.9 ± 599.2 μmol TE/g. In the series on α-amylase (EC3.2.1.1), the “α-amylase inhibition (in words)” value is on record as “did not show any inhibition effect” and the IC50 (usually the point on the concentration scale where inhibition reaches its midpoint) was greater than 100 mM.
`COc1ccc(C(=O)O)cc1O` [Compound 5, 3-hydroxy-4-methoxybenzoic acid]: the “solubility in 30% (v/v) ethanol-water system” value in series [3] is “cannot be dissolved”. In series [1], the ORAC value turned out to be 20705.9 ± 835.9 μmol TE/g.
Consider `CC(=O)SC(C)=O` [Compound 3, acetyl sulfide], for which the ORAC value in series [1] was determined as 1.3 ± 0.2 μmol TE/g.
The same measure, in the same setting: the same measure for `COc1ccc(OC2OC(CO)C(O)C(O)C2O)cc1OC` [Compound 11, 3,4-dimethoxyphenyl-O-β-D-glucopyranoside]: 56.5 ± 2.8 μmol TE/g; for `Cc1cncc(CC(O)C(O)CO)n1` (stereo not shown) [Compound 9, 2-methyl-6-(2′,3′,4′-trihydroxybutyl)-pyrazine]: 78.0 ± 2.9 μmol TE/g.
The same measure, in the same setting: as for `COc1cc(OC)c(OC2OC(CO)C(O)C(O)C2O)c(OC)c1` [Compound 12, 2,4,6-trimethoxyphenyl-1-O-β-D-glucopyranoside], the figure is 80.2 ± 2.3 μmol TE/g.
For the molecule `COc1ccc(O)c(C(=O)O)c1` [Compound 2, 2-hydroxy-5-methoxybenzoic acid], the half-maximal inhibitory concentration (IC50) turned out to be 26.1 ± 0.67 mM in series [2] and 40.5 ± 0.44 mM against α-amylase (EC3.2.1.1). Further, the ORAC value in series [1] is 32648.1 ± 2181.8 μmol TE/g.
`COc1ccc(OC)cc1` [Compound 14, 1,4-dimethoxybenzene]: the ORAC value in series [1] turned out to be 2154.2 ± 183.1 μmol TE/g.
For `COc1cc(C(=O)O)ccc1O` [Compound 8, vanillic acid], in the series on HepG2 cells (HepG2 cells), the “cellular uptake rate (CAA value of the PBS wash/no PBS wash × 100%)” value amounted to 71.53%. The CAA value is 6.18 μmol QE/100 μmol and 6.18 ± 0.09 μmol QE/100 μmol with HepG2 cells (HepG2 cells, PBS wash protocol); 8.64 μmol QE/100 μmol and 8.64 ± 0.53 μmol QE/100 μmol in the series on HepG2 cells (HepG2 cells, no PBS wash protocol). Also, the results for the concentration for a half-maximal effect (EC50) with HepG2 cells (PBS wash protocol) and with HepG2 cells (no PBS wash protocol) were 0.21 ± 0.00322 mM and 0.0591 ± 0.00374 mM, respectively. Also, the results for the IC50 (in series [2]; on α-amylase (EC3.2.1.1)) were 29.7 ± 0.33 mM and greater than 100 mM, respectively. In series [1], the ORAC value is recorded as 12945.8 ± 1419.3 μmol TE/g. The “decrease of ORAC antioxidant activity relative to 4-hydroxybenzoic acid” value in series [1] is 1.15 folds.
Turning to `COc1cc(C(=O)O)cc(OC)c1O` [Compound 13, syringic acid], the values for the 50% inhibitory concentration (IC50) (in series [2]; against α-amylase (EC3.2.1.1)) were 20.3 ± 0.39 mM and greater than 100 mM, respectively. Also, in series [1], the ORAC value is 1879.9 ± 44.7 μmol TE/g. Further, the “decrease of ORAC antioxidant activity relative to 4-hydroxybenzoic acid” value in series [1] came to 7.91 folds.
With `O=c1c(O)c(-c2ccc(O)c(O)c2)oc2cc(O)cc(O)c12` [Quercetin, quercetin, reference compound], the EC50 (as a rule, the midpoint of the concentration-response curve) in the series on HepG2 cells (PBS wash protocol) was 0.013 mM; in the series on HepG2 cells (no PBS wash protocol), 0.00509 mM.
As for `O=C(O)c1cc(O)ccc1O` [Compound 4, gentisic acid], the results for the half-inhibitory concentration (IC50) (in series [2]; against α-amylase (EC3.2.1.1)) were 30.5 ± 1.02 mM and 36 ± 2.23 mM, respectively. Besides, the ORAC value in series [1] was found to be 23113.1 ± 1057.9 μmol TE/g.
Turning to `COc1cc(C(=O)Cl)c(O)c(O)c1O` [Compound 1, 2,3,4-trihydroxy-5-methoxy benzoyl chloride], in series [1], the ORAC value is 4094.6 ± 32.1 μmol TE/g.

(Values after article PMC9563075, “Identification and Structure–Activity Relationship of Recovered Phenolics with Antioxidant and Antihyperglycemic Potential from Sugarcane Molasses Vinasse” (Foods, 2022).)
